Laboratory results as given in US5468772A, “Tripterinin compound and method” (Pharmagenesis, Inc., priority 1993, dated 1995).

What was measured:
[1] = test system: human peripheral blood lymphocytes; assay: Suppression of human PBL proliferation in vitro ([3H]thymidine incorporation), with or without anti-CD3 (X-35); assay type: cell-based
Experimental: One measure of immunosuppression is suppression of stimulated peripheral blood lymphocyte (PBL) proliferation in vitro. In the assay detailed in Example 3, PBLs were activated in vitro by addition of anti-CD3 monoclonal antibody (X-35 antibody). At the same time, purified tripterinin or vehicle (control) was added to each culture, at selected concentrations. After 72 hours incubation, tritiated thymidine was added to the culture medium, and thymidine incorporation into DNA was assayed, as a measure of DNA synthesis associated with cell proliferation.
The ability of tripterifordin to inhibit anti-CD3 stimulated PBL proliferation was assayed at concentrations of 0, 0.78, 3.13, and 12.5 μg/ml, with the results shown in FIG. 9.
Human peripheral blood lymphocytes were prepared using an established method (Boyum). Human blood buffy coat samples, approximately 25 ml/donor, were obtained from the Stanford University Medical Center Blood Bank. Using sterile technique, the buffy coat samples were gently resuspended in a total volume of 100 ml with the addition of calcium and magnesium free Hank's balanced salt solution (HBSS, obtained from Gibco) at room temperature. A volume of 25 ml of the cell suspension was then layered onto 15 ml of Ficoll-Pacque (Pharmacia LKB Biotechnology, Inc.) in a 50 ml conical centrifuge tube. Tubes were centrifuged in a Beckman GPR tabletop centrifuge (GH-3.7 Rotor) at 400×g for 30 minutes at 15° C.
Following centrifugation, the PBL suspensions at the interfaces were transferred to new 50 ml tubes using a transfer pipette, and the PBL samples were resuspended in a total volume of 45 ml HBSS and centrifuged at 354×g for 10 minutes at 15° C. Supernatants were discarded. PBL's were resuspended in 10 ml HBSS, combined to make a total of 45 ml HBSS, and centrifuged at 265×g for 10 minutes at 15° C. The cell pellets were suspended in 10 ml of X-Vivo tissue culture medium (Bio Whittaker) and counted using a hemocytometer. Tissue culture medium was then added to achieve a final cell concentration of 1× 10^6 cells/ml. Additional dilutions were carried out as required for each assay.
Assays were carried out in 96 well sterile tissue culture plates (Costar 3790 and Costar 3595). A volume of 150 μl of X-Vivo medium or sterile distilled water was added to the outer wells of the plate to prevent evaporation of medium within the experimental wells. PBL's from 2 different donors were used in parallel in all experiments. A volume of 100 μl PBL suspension was added to each well using a multichannel pipette. Plates were incubated in an atmosphere of 93% air/7% CO2 in a tissue culture incubator at 37° C. X-35 (AMAC #0178), an anti CD-3 surface antigen antibody, was used at 5 ng/ml to stimulate PBL proliferation.
Tripterinin or tripterifordin was dissolved in ethanol (10 mg/ml) and then diluted in sterile X-Vivo tissue culture medium to obtain the final concentrations required for each experiment.
Four hours prior to the conclusion of incubation, 50 μl of X-Vivo tissue culture medium containing 8 μCi/ml [^3 H]Thymidine (Amersham, 49 Ci/mmol) was added to each tissue culture well. After 72 hours total incubation time, the cells were removed from the tissue culture wells and applied to filter paper using a cell harvester (Brandel Model MB-24). The filter paper was dried for one hour under a heat lamp and then cut into 1 cm discs. Each sample was placed in a scintillation vial containing 2 ml of scintillation fluid (Biosafe, Research Products International Corp.). Samples were counted in a Beckman LS 6000SC scintillation counter.

HIV = details: cited from earlier work
mouse thymocytes = assay: Inhibition of IL-1 action: IL-1 stimulated mouse thymocyte proliferation in presence of PHA; assay type: cell-based; details: tripterifordin 3.13 μg/ml, about 3 μg/ml, tripterinin 0.02 to 1 μg/ml
Experimental: The ability of tripterinin and tripterifordin to suppress the cell-proliferative effect of IL-1 in mouse thymocytes, an index of IL-1 action (O'Gara), was also examined. In this study, mouse thymocytes in culture were stimulated with IL-1 in the presence of phytohemagglutinin (PHA) and increasing concentrations of purified tripterinin or tripterifordin. The cells were cultured for 72 hours, and during the last four hours, incubated with tritiated thymidine. DNA synthesis was assessed by measurement of radiolabeled thymidine incorporation.
Mouse thymocytes were prepared, and the action of IL-1, which stimulates thymocyte proliferation, was measured using standard techniques (O'Gara). Three to six week old C3H/HeN mice were obtained from Simonsen Laboratories, Gilroy, Calif. and sacrificed by CO2 inhalation. Thymi were removed, separated from adherent non-thymic tissue, homogenized in Hank's balanced salt solution (Gibco) using a glass homogenizer, and centrifuged at 180×g for 10 minutes at 15° C. Following an additional wash in HBSS, the thymocytes were resuspended in RPMI 1640 tissue culture medium (Gibco) containing 50 μM 2-mercaptoethanol (Fisher), 2 mM glutamine (Gibco), 1 mM sodium pyruvate, non-essential amino acids, penicillin (100 U/ml) streptomycin (100 μg/ml), 10% heat inactivated fetal bovine serum and Phytohemagglutinin (PHA, Pharmacia, final concentration 10 μg/ml). Cells were cultured in round-bottom 96 well microtiter tissue culture plates, 6×10^5 cells per well in a volume of 100 μl. Tripterinin or tripterifordin was diluted in tissue culture medium and added to the wells in the presence and absence of IL-1 (recombinant human IL-1, R&D Systems catalog #201-LB, 0.1 ng/ml). Total volume was 150 μl per well.
Plates were incubated for 72 hours (95% air/5% CO2, 37° C.). During the last four hours of incubation, [^3 H]-thymidine (Amersham, […]) was added (0.5 μCi per well). Cells were harvested onto Whatman 934-AH glass microfiber filters and counted in a Beckman LS 6000 scintillation counter. Results were expressed as counts per minute per well.

TNFα = details: RA patients, long term administration; cited from earlier work
IL-1 = details: RA patients, long term administration; cited from earlier work

| Structure (SMILES) | inhibition of anti-CD3 stimulated PBL proliferation ([1]; highest concentration tested, 12.5 μg/ml, FIG. 9) | inhibitory effect on PBL proliferation ([1]; stimulated and unstimulated (tripterinin), FIG. 9 (tripterifordin)) | anti-HIV activity (HIV) | inhibition of IL-1 stimulated thymocyte proliferation (mouse thymocytes) | inhibition of IL-1 stimulated thymocyte proliferation (mouse thymocytes; listed as Tripterifordin) | serum level of TNFα (TNFα) | serum level of IL-1 (IL-1) |
| --- | --- | --- | --- | --- | --- | --- | --- |
| C[C@@]1(O)C[C@@]23CC[C@H]4[C@@]5(CCC[C@]4(C)C(=O)OC5)[C@@H]2CC[C@H]1C3 [tripterifordin, reference compound] | failed to significantly inhibit PBL proliferation | little or no inhibitory effect | anti-HIV principle | little or no inhibitory effect | failed to inhibit |  |  |
| O=C(O)c1cc(/N=N/c2ccc(S(=O)(=O)Nc3ccccn3)cc2)ccc1O [sulfasalazine] |  |  |  |  |  | decline | decline |
